Experimental data: the supplement of paper PMC10307832

Columns and labels:
Experiment in all cases: relative viability (nuclei count vs DMSO), 5 days (fraction); higher = more cells survive
Daporinad + Navitoclax = compound: O=C(/C=C/c1cccnc1)NCCCCC1CCN(C(=O)c2ccccc2)CC1 [Daporinad] + CC1(C)CCC(c2ccc(Cl)cc2)=C(CN2CCN(c3ccc(C(=O)NS(=O)(=O)c4ccc(N[C@H](CCN5CCOCC5)CSc5ccccc5)c(S(=O)(=O)C(F)(F)F)c4)cc3)CC2)C1 [Navitoclax] (partner 0.5 µM)
Summary of the method: (§1)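 Relative viability divides the nuclei count in treated wells by that in vehicle wells. Lung cancer cell lines were seeded in 1536-well plates, dosed by pin tool the next day, and fixed and stained after 5 days in one step with final 0.05% Triton X-100, 1% formaldehyde and 1 ug/ml Hoechst. Dosing was a single drug or a fixed anchor-drug dose plus five library-drug doses (not always all listed) in √10 steps, and values are medians of duplicate plates imaged at 4×.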

R406 + Vorinostat = compound: COc1cc(Nc2ncc(F)c(Nc3ccc4c(n3)NC(=O)C(C)(C)O4)n2)cc(OC)c1OC [R406] + O=C(CCCCCCC(=O)Nc1ccccc1)NO [Vorinostat] (partner 1 µM)
Summary of the method: as §1

Daporinad + Trametinib = compound: O=C(/C=C/c1cccnc1)NCCCCC1CCN(C(=O)c2ccccc2)CC1 [Daporinad] + CC(=O)Nc1cccc(-n2c(=O)n(C3CC3)c(=O)c3c(Nc4ccc(I)cc4F)n(C)c(=O)c(C)c32)c1 [Trametinib] (partner 0.02 µM)
Summary of the method: as §1

R406 + Foretinib = compound: COc1cc(Nc2ncc(F)c(Nc3ccc4c(n3)NC(=O)C(C)(C)O4)n2)cc(OC)c1OC [R406] + COc1cc2c(Oc3ccc(NC(=O)C4(C(=O)Nc5ccc(F)cc5)CC4)cc3F)ccnc2cc1OCCCN1CCOCC1 [Foretinib] (partner 0.25 µM)
Summary of the method: as §1

Cell Line | relative viability (Daporinad + Navitoclax; first compound 0.0005 µM) | relative viability (Daporinad + Navitoclax; first compound 0.001581 µM) | relative viability (Daporinad + Navitoclax; first compound 0.005 µM) | relative viability (Daporinad + Navitoclax; first compound 0.01581 µM) | relative viability (R406 + Vorinostat; first compound 0.08 µM) | relative viability (R406 + Vorinostat; first compound 0.253 µM) | relative viability (R406 + Vorinostat; first compound 0.8 µM) | relative viability (R406 + Vorinostat; first compound 2.53 µM) | relative viability (R406 + Vorinostat; first compound 8 µM) | relative viability (Daporinad + Trametinib; first compound 0.0005 µM) | relative viability (Daporinad + Trametinib; first compound 0.001581 µM) | relative viability (Daporinad + Trametinib; first compound 0.005 µM) | relative viability (Daporinad + Trametinib; first compound 0.01581 µM) | relative viability (R406 + Foretinib; first compound 0.08 µM) | relative viability (R406 + Foretinib; first compound 0.253 µM) | relative viability (R406 + Foretinib; first compound 0.8 µM) | relative viability (R406 + Foretinib; first compound 2.53 µM) | relative viability (R406 + Foretinib; first compound 8 µM)
LCLC-97TM1 | 0.365 | 0.506 | 0.37 | 0.571 | 0.732 | 0.908 | 1.38 | 0.569 | 0.468 | 0.188 | 0.158 | 0.189 | 0.177 | 0.89 | 0.963 | 0.965 | 0.935 | 0.327
LK-2 | 0.865 | 1.04 | 0.583 | 0.393 | 0.205 | 0.404 | 0.293 | 0.291 | 0.237 | 0.783 | 0.795 | 0.764 | 0.283 | 1.14 | 1.45 | 1.1 | 0.888 | 0.344
LOU-NH91 | 0.678 | 0.851 | 0.928 | 1.24 | 0.926 | 0.993 | 0.914 | 0.53 | 0.498 | 0.797 | 0.847 | 0.922 | 0.941 | 0.918 | 0.975 | 0.918 | 0.518 | 0.475
LU99A | 0.71 | 0.833 | 0.94 | 0.931 | 0.519 | 0.484 | 0.553 | 0.361 | 0.312 | 0.511 | 0.562 | 0.598 | 0.613 | 0.801 | 0.794 | 0.914 | 0.588 | 0.345
LXF-289 | 0.868 | 0.951 | 0.971 | 1.02 | 0.632 | 0.772 | 0.787 | 0.654 | 0.616 | 0.569 | 0.663 | 0.689 | 0.681 | 1.01 | 1.03 | 0.969 | 0.999 | 0.238
NCI-H23 | 0.83 | 0.637 | 0.658 | 0.447 | 0.605 | 0.635 | 0.734 | 0.155 | 0.216 | 0.395 | 0.382 | 0.412 | 0.342 | 0.989 | 1.05 | 0.977 | – | 0.206
NCI-H322M | 1.25 | 1.43 | 1.25 | 0.995 | 0.816 | 0.873 | 0.864 | 0.633 | 0.468 | 0.507 | 0.484 | 0.504 | 0.441 | 0.962 | 0.917 | 1.03 | 0.547 | 0.559
NCI-H441 | – | 0.609 | 0.815 | 0.559 | 0.669 | 0.754 | 0.76 | 0.905 | 0.699 | 0.351 | 0.426 | 0.496 | 0.573 | 0.863 | 1.13 | 1.18 | 0.718 | 0.406
NCI-H460 | 1.09 | 1.32 | 0.978 | 0.855 | 0.673 | 1.04 | 0.917 | 0.645 | 0.742 | 0.0943 | 0.147 | 0.187 | 0.206 | 0.887 | 1.13 | 1.16 | 1.07 | 0.781
NCI-H520 | 0.945 | 0.442 | 0.258 | 0.197 | 0.671 | 0.698 | 0.668 | 0.384 | 0.162 | 0.639 | 0.721 | 0.185 | 0.136 | 0.831 | 1 | 0.883 | 0.293 | 0.421
NCI-H596 | 1.01 | 1.05 | 1.3 | 0.291 | 0.659 | 0.681 | 0.72 | 0.38 | 0.263 | 0.704 | 0.791 | 0.74 | 0.48 | 0.926 | 1 | 0.957 | 0.726 | 0.162
NCI-H647 | 1.03 | 1.27 | 1.25 | 1.14 | 0.436 | 0.645 | 0.611 | 0.66 | 0.113 | 0.456 | 0.572 | 0.603 | 0.672 | 1.24 | 1.2 | 1.15 | 0.917 | 1.05
NCI-H727 | 0.409 | 0.568 | 0.483 | 0.29 | 1.01 | 1.26 | 1.22 | 1.24 | 1.18 | 0.398 | 0.453 | 0.375 | 0.379 | 0.954 | 0.841 | 0.851 | 0.752 | 0.697
NCI-H838 | 1.15 | 1.23 | 0.928 | 0.624 | 0.694 | 0.795 | 0.769 | 0.458 | 0.194 | 0.496 | 0.637 | 0.542 | 0.265 | 0.984 | 1.17 | 1.09 | 0.645 | 0.791
NCI-H1355 | 0.911 | 0.98 | 1.05 | 0.951 | 0.72 | 0.71 | 0.733 | 0.385 | 0.439 | 0.409 | 0.465 | 0.298 | 0.557 | 0.973 | 1.09 | 1.15 | 0.833 | 0.691
NCI-H1395 | 1.03 | 1.14 | 1.13 | 1.26 | 0.633 | 0.731 | 0.843 | 0.399 | 0.417 | 1.04 | 1.04 | 1.14 | 1.06 | 1.03 | 1.22 | 1.03 | 0.736 | 0.632
NCI-H1437 | 1.09 | 1.1 | 1.04 | 1.07 | 0.901 | 0.983 | 0.84 | 0.835 | 0.602 | 0.444 | 0.544 | 0.551 | 0.518 | 1.22 | 1.3 | 1.26 | 1.27 | 1.34
NCI-H1650 | 1.21 | 1.44 | 1.28 | 0.501 | 0.635 | 0.634 | 0.664 | 0.396 | 0.389 | 0.565 | 0.628 | 0.635 | 0.572 | 1.28 | 1.23 | 1 | 0.723 | 0.117
NCI-H1651 | 1.14 | 1.16 | 0.813 | 0.758 | 0.557 | 0.612 | 0.615 | 0.547 | 0.545 | 0.854 | 0.825 | 0.823 | 0.757 | 0.875 | 0.83 | 0.939 | 0.596 | 0.679
NCI-H1666 | 0.957 | 1.05 | 0.861 | 0.796 | 1.02 | 1.09 | 1.05 | 1.1 | 1.03 | 0.692 | 0.843 | 0.821 | 0.9 | 0.926 | 1.07 | 0.977 | 0.869 | 0.59
NCI-H1734 | 0.845 | 0.96 | 0.903 | 0.601 | 0.747 | 0.918 | 0.909 | 0.366 | 0.309 | 0.725 | 0.764 | 0.724 | 0.491 | 0.812 | 1.07 | 0.997 | 0.52 | 0.448
NCI-H1755 | 0.987 | 0.974 | 1.04 | 0.989 | 0.778 | 0.861 | 0.757 | 0.642 | 0.468 | 0.751 | 0.761 | 0.779 | 0.768 | 0.923 | 0.946 | 0.894 | 0.677 | 0.598
NCI-H1793 | 0.453 | 0.499 | 0.38 | 0.569 | 0.632 | 0.967 | 0.928 | 0.128 | 0.182 | 0.362 | 0.453 | 0.525 | 0.389 | 0.582 | 0.641 | 0.809 | 0.464 | 0.139
NCI-H1915 | 0.805 | 0.739 | 0.765 | 0.809 | 0.506 | 0.631 | 0.546 | 0.403 | 0.369 | 0.28 | 0.309 | 0.284 | 0.368 | 0.983 | 1.16 | 1.11 | – | 0.989
NCI-H1944 | 1.08 | 1.05 | 0.981 | 1.09 | 0.504 | 0.585 | 0.566 | 0.466 | 0.45 | 0.449 | 0.464 | 0.469 | 0.399 | 0.867 | 0.93 | 0.966 | 0.756 | 0.682
NCI-H1975 | 1.28 | 1.18 | 1.06 | 1.06 | 0.722 | 0.775 | 0.73 | 0.414 | 0.213 | 0.329 | 0.286 | 0.341 | 0.454 | 0.9 | 1.05 | 0.986 | 0.492 | 0.227
NCI-H1993 | 0.877 | 0.753 | 0.982 | 1.16 | 0.892 | 1.03 | 0.963 | 0.433 | 0.447 | 0.485 | 0.514 | 0.633 | 0.555 | 0.72 | 0.756 | 0.846 | 0.642 | 0.577
NCI-H2009 | 1.17 | 1.2 | 1.22 | 0.812 | 0.711 | 0.749 | 0.785 | 0.739 | 0.363 | 0.261 | 0.35 | 0.315 | 0.31 | 1.19 | 1.35 | 1.17 | 1.27 | 0.368
NCI-H2023 | 0.995 | 1.14 | 0.958 | 0.995 | 0.732 | 0.784 | 0.618 | 0.391 | 0.312 | 0.605 | 0.523 | 0.539 | 0.621 | 0.905 | 0.703 | 0.768 | 0.896 | 0.368
